# Data taken from PubChem BioAssay (NCI).
# Where “and” joins values, the source holds several entries; their conditions need not be identical. Identical values can stand only once.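 Step 1: Grow cells in 96-well plates. Step 2: Expose to compound for 48 hours at 5 concentrations. Step 3: Interpolate endpoints linearly; if unreached, use highest concentration. At the GI50, growth is halved. At the TGI there is no net growth.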
# Tests used:
# Experiment in all cases: NCI-60 cell line screen, 48 h
# [1] = tested on: HT29 colon
# [2] = tested on: MOLT-4 leukemia
# [3] = tested on: U251 CNS
# [4] = tested on: 786-0 renal
# [5] = tested on: NCI-H522 lung
# [6] = tested on: HS 578T breast
# [7] = tested on: NCI-H23 lung
# [8] = tested on: SK-OV-3 ovarian
# [9] = tested on: NCI-H460 lung
# [10] = tested on: SR leukemia
Structure (SMILES),GI50 [1] [µM],TGI [1],GI50 [2] [µM],TGI [2],GI50 [3] [µM],GI50 [4] [µM],TGI [4],GI50 [5] [nM],TGI [5],GI50 [6] [µM],TGI [6] [µM],GI50 [7] [µM],TGI [7] [µM],GI50 [8] [µM],TGI [8] [µM],GI50 [9] [µM],TGI [9],TGI [3] [µM],TGI [10] [µM],GI50 [10] [nM]
[Au+].[Au+].[Au+].[c-]1nccn1Cc1ccccc1.[c-]1nccn1Cc1ccccc1.[c-]1nccn1Cc1ccccc1,16.9,> 77.4 µM,7.96,> 100 µM,9.03,1.73,3.11 µM,1580,2.95 µM,19.8,64,4.97,30.7,19.4,36.8,11.6,54.5 µM,,,
CC(=O)c1sc(-c2nc(C)c(C(=O)/C=C\c3ccc(/C=C\C(=O)c4sc(-c5nc(C)c(C(C)=O)s5)nc4C)cc3)s2)nc1C,,> 100 µM,,> 100 µM,,,> 100 µM,,> 100 µM,,,,> 100,,> 100,,> 100 µM,> 100,> 100,
C[n+]1cc(C(O)c2ccc3c(c2)OCO3)c2ccccc2c1 (stereo unspecified),,> 100 µM,,55.5 µM,,,> 100 µM,,48.1 µM,,,,,,> 100,,> 100 µM,> 100,,
CC(C)(C=O)CC(C#N)/C(=N\NC(N)=O)C(=O)Nc1ccccc1C(N)=O (stereo unspecified),,> 100 µM,,> 100 µM,,,> 100 µM,,> 100 µM,,,,> 100,,> 100,,> 100 µM,> 100,> 100,
Cc1cc(C)c(C2[C@H]3C(=O)N(c4ccc(Cc5ccc(N6C(=O)[C@@H]7ON(c8ccccc8)C(c8c(C)cc(C)cc8C)[C@@H]7C6=O)cc5)cc4)C(=O)[C@H]3ON2c2ccccc2)c(C)c1 (stereo partly specified),,> 100 µM,,> 100 µM,,,> 100 µM,,> 100 µM,,,,> 100,,> 100,,> 100 µM,> 100,> 100,
Cc1ccc(S(=O)(=O)NCCNc2nccc(-c3c(-c4ccc(F)cc4)nc4sccn34)n2)cc1,,,,,4.72,5.65,26.8 µM,6950,> 100 µM,7.7,75.5,7.14,70.9,12.4,40.3,3.5,> 100 µM,22.6,,
C[C@@]12CCCc3coc(c31)C(=O)c1cc3c(cc12)C(=O)C=CC3=O,> 1,> 1 µM and 44.9 µM,> 1,> 1 µM and 6.16 µM,> 1,> 1,> 1 µM and 30.7 µM,> 1000,> 1 µM and 19.5 µM,,,,29.7,> 100,> 100,> 1,> 1 µM and 41.3 µM,> 100,,
COc1ccc(-c2ccc(/C=N/n3c(C)n[nH]c3=S)o2)c([N+](=O)[O-])c1,> 100,> 100 µM,> 100,> 100 µM,,91.1,> 100 µM,> 100000,> 100 µM,> 100,> 100,> 100,> 100,> 100,> 100,> 100,> 100 µM,,,
O=C1c2ccc3c4ccccc4n(Cc4ccccc4)c3c2C(=O)N1c1ccccc1,,39.2 µM,,9.54 µM,,,26.7 µM,,6.93 µM,,,,17.6,,> 55.6,,> 100 µM,29.3,22.1,
O=C1[C@H]2ON(c3ccccc3)C(c3ccc(Cl)cc3)[C@H]2C(=O)N1c1ccc(Cc2ccc(N3C(=O)[C@@H]4ON(c5ccccc5)C(c5ccc(Cl)cc5)[C@@H]4C3=O)cc2)cc1 (stereo partly specified),,> 100 µM,,> 100 µM,,,> 100 µM,,> 100 µM,,,,> 100,,> 100,,> 100 µM,> 100,> 100,
COC(=O)CCC(=O)CC1CC(=O)C2CCCN12 (stereo unspecified),,> 100 µM,,> 100 µM,,,> 100 µM,,> 100 µM,,,,> 100,,> 100,,> 100 µM,> 100,> 100,
O=C(Nc1ccc(-n2cc(-c3ccncc3)c(-c3ccc(Cl)c(O)c3)n2)cc1)Nc1ccc(Cl)c(C(F)(F)F)c1,,,1.14,6.77 µM,1.08,1.22,3.11 µM,,,1.39,4.43,1.67,3.43,2.02,4.69,1.7,3.4 µM,2.32,,
COc1ccc(C2c3cc(OC)c(OC)cc3C(Cc3ccc([N+](=O)[O-])cc3)C2c2ccc([N+](=O)[O-])cc2)cc1OC (stereo unspecified),,> 100 µM,,> 100 µM,,,> 100 µM,,> 100 µM,,,,> 100,,,,> 100 µM,> 100,,
C1C[OH+]CCNCC[OH+]CC[OH+]CCN1.[Cl-].[Pt+4],> 100,> 100 µM,> 100,> 100 µM,> 100,> 100,> 100 µM,> 100000,> 100 µM,,,> 100,> 100,> 100,> 100,> 100,> 100 µM,> 100,,
COc1cc(C)c2c(c1C)OC(=O)c1c(C)c(Cl)c(O)c(C=O)c1O2,,70.3 µM,,32 µM,,,24.6 µM,,,,,,32,,65,,40.3 µM,,31.9,
O=c1[nH]c2cc(Cl)ccc2nc1/C(=N\O)C(O)c1ccc(Cl)cc1Cl (stereo unspecified),,> 100 µM,,> 100 µM,,,> 100 µM,,> 100 µM,,,,> 100,,> 100,,> 100 µM,> 100,> 100,
O=C(COc1ccc(/C=C2\CSc3ccccc3C2=O)cc1)Nc1nccs1,4.48,16.2 µM,,,6.93,14,27 µM,1920,4.17 µM,4.29,37.2,11.7,24.3,22.2,42.2,15.9,31.9 µM,19.5,,
Cc1cc(NS(=O)(=O)c2ccc(Nc3c4ccccc4nc4c(C(=O)NCCN(C)C)cccc34)cc2)no1,,> 100 µM,,,,,19.7 µM,,4.56 µM,,,,> 100,,,,26.6 µM,> 100,> 100,
C[C@]12CC[C@H](O)C[C@H]1CC[C@@H]1[C@@H]2CC[C@]2(C)[C@@H](C3=CC(=O)OC3)CC[C@]12O,,1.6 µM,,0.0537 µM,,0.0337,0.142 µM,,0.436 µM,,> 100,,,,0.818,,0.139 µM,1.52,,
CCOC(=N)CC(=O)Nc1cccc(C)c1C,,> 100 µM,,7.46 µM,,,> 100 µM,,> 100 µM,,,,> 100,,> 100,,> 100 µM,> 100,> 100,

Structure (SMILES),GI50 [1] [µM],TGI [1],GI50 [2] [µM],TGI [2],GI50 [3] [µM],GI50 [4] [µM],TGI [4],GI50 [5] [nM],TGI [5],GI50 [6] [µM],TGI [6] [µM],GI50 [7] [µM],TGI [7] [µM],GI50 [8] [µM],TGI [8] [µM],GI50 [9] [µM],TGI [9],TGI [3] [µM],TGI [10] [µM],GI50 [10] [nM]
CCCCOC(=O)NC(=O)c1cn(CCCOC(=O)NCCCCCCNC(=O)OCCCn2cc(C(=O)NC(=O)OCCCC)c(=O)[nH]c2=O)c(=O)[nH]c1=O,,> 100 µM,,,,,> 100 µM,,> 100 µM,,,,> 100,,> 100,,> 100 µM,> 100,> 100,
N#C/C(=C/N1CCN(C(=O)c2ccco2)C1=S)C(=O)c1ccccc1,30.5,> 100 µM,43.7,> 100 µM,17,16.1,44.6 µM,3740,12.3 µM,,,15.2,43.5,37.4,> 100,9.52,> 100 µM,> 100,> 100,2840
CC(C)CCCC(C)[C@H]1CCC2[C@H]3C(CC[C@@]21C)[C@@]1(C)CCC=C[C@]12C[C@@H]2[C@@H]3O (stereo partly specified),,> 100 µM,,> 100 µM,,,> 100 µM,,> 100 µM,,,,,,> 100,,> 100 µM,> 100,> 100,
Nc1ccn(C2(CO)C=C(CO)C(O)C2O)c(=O)n1 (stereo unspecified),,,,> 25.8 µM,,,> 25.8 µM,,> 25.8 µM,,,,,,> 25.8,,> 25.8 µM,> 25.8,> 25.8,
COC(=O)/C(C=O)=C/Sc1ccccc1,,81.3 µM,,> 100 µM,,,30.2 µM,,24 µM,,,,> 100,,88.5,,> 100 µM,42.2,> 100,
COC(=O)OCC1OC(N2C(=O)NC(=O)C(Br)C2N=[N+]=[N-])CC1OC(=O)OC (stereo unspecified),,> 100 µM,,,,,> 100 µM,,> 100 µM,,,,> 100,,> 100,,> 100 µM,> 100,,
COc1cc2ccc3c4cc(OC)c(OC(C)C)cc4cnc3c2cc1OC,,> 100 µM,,> 100 µM,,,> 100 µM,,> 100 µM,,,,> 100,,> 100,,> 100 µM,> 100,> 100,
CN[C@@H](C)[C@H](NC)c1ccccc1,,> 100 µM,,> 100 µM,,,> 100 µM,,> 100 µM,,,,> 100,,> 100,,,> 100,,
COC(=O)/C(C)=C/[N+](=O)[O-],,43.2 µM,,39.4 µM,,,32.3 µM,,,,,,41.2,,33.4,,54.8 µM,32.5,,
COc1ccc(C(=O)COc2cccc(/C=C3\Oc4ccc5ccccc5c4C3=O)c2)cc1,6.92,44.6 µM,2.85,21.6 µM,6.42,2.22,6.73 µM,1460,3.29 µM,5.39,25.8,3.38,16.8,,,20.6,52.6 µM,19.6,,
Nc1nc(CCl)nc(Nc2ccccc2)n1,,27.9 µM,,37.2 µM,,,4.35 µM,,3.27 µM,,,,38.7,,,,39.3 µM,15.6,33.7,
Cc1ccc(C2(O)CC(c3ccc([N+](=O)[O-])o3)=NN2C(=O)COc2ccc(Cl)cc2)cc1 (stereo unspecified),,> 38.8 µM,,> 100 µM,,,18 µM,,34.2 µM,,,,11.9,,> 100,,20.7 µM,9.09,6.52,
C=CCNC(=O)N(CCC)CCCCC(NC(C)=O)C(=O)NCc1ccccc1 (stereo unspecified),,> 100 µM,,> 100 µM,,,> 100 µM,,> 100 µM,,,,> 100,,> 100,,> 100 µM,> 100,,
CN(C)C(=S)/N=c1\ss/c(=N\C(=S)N(C)C)n1-c1ccc(Cl)c(Cl)c1,,> 100 µM,,> 100 µM,,,> 100 µM,,> 100 µM,,,,> 100,,> 100,,> 100 µM,> 100,> 100,
COC(=O)/C(C#N)=C1\CCC(O)N1 (stereo unspecified),,> 100 µM,,> 100 µM,,,> 100 µM,,> 100 µM,,,,> 100,,> 100,,> 100 µM,> 100,> 100,
C=C1C[C@]23CCC4C(C)(C)C(=O)CC[C@]4(C)C2C[C@H]1C(O)C3=O (stereo partly specified),,,,> 75 µM,,,> 75 µM,,> 75 µM,,,,> 75,,> 75,,,> 75,> 75,
COc1cc2cccc(N=Cc3cccc(OC)c3OC(C)C)c2cc1OC,,50.2 µM,,69.5 µM,,,37.8 µM,,39.7 µM,,,,57.2,,73,,> 100 µM,49.9,,
CC1(C)O/C(=C\c2ccccc2)C(=O)/C(=C/c2ccccc2)O1,,> 100 µM,,43.9 µM,,,> 100 µM,,22.5 µM,,,,> 100,,> 100,,> 100 µM,> 100,75.3,
O=C(Nc1cc(Cl)ccc1Cl)C(=O)C(c1cnc2ccccc2n1)[N+](=O)[O-] (stereo unspecified),,> 100 µM,,> 100 µM,,,> 100 µM,,> 100 µM,,,,> 100,,> 100,,> 100 µM,> 100,> 100,
CN1NC(=Nc2ccccc2)Sc2c1cnn(-c1ccccc1)c2=O,,> 100 µM,,> 100 µM,,,> 100 µM,,,,,,> 100,,> 100,,> 100 µM,> 100,,
